Test results taken from PMC6700223 (Frontiers in Microbiology, 2019).

Columns and labels:
[1] = type: physicochemical; details: pH 7.2
[2] = system: LASV GPC protein-mediated cell–cell fusion (293T/LASV/EGFP cells and Huh-7 cells); details: pH 5; for IC50: 12 h

SMILES | α-helical ratio [1] [%] | IC50 [2] [µM] | Inhibition of cell–cell fusion at 20 μM [2]
CC[C@H](C)[C@H](NC(=O)[C@H](CC(=O)O)NC(=O)[C@H](CC(=O)O)NC(=O)[C@H](CO)NC(=O)[C@H](Cc1ccccc1)NC(=O)[C@H](Cc1c[nH]cn1)NC(=O)[C@@H](NC(=O)[C@H](CCC(=O)O)NC(=O)[C@H](CC(N)=O)NC(=O)[C@H](CC(C)C)NC(=O)[C@H](Cc1ccc(O)cc1)NC(=O)[C@H](CO)NC(=O)CNC(=O)[C@H](CC(N)=O)NC(=O)[C@H](CO)NC(=O)[C@@H](NC(=O)[C@H](CC(C)C)NC(=O)[C@H](Cc1c[nH]c2ccccc12)NC(=O)[C@@H](N)CS)C(C)C)[C@@H](C)O)C(=O)N[C@@H](CCC(=O)O)C(=O)N[C@@H](CCC(N)=O)C(=O)N[C@@H](CCC(N)=O)C(=O)N[C@@H](C)C(=O)N[C@@H](CC(=O)O)C(=O)N[C@@H](CC(N)=O)C(=O)N[C@@H](CCSC)C(=O)N[C@H](C(=O)N[C@H](C(=O)N[C@@H](CCC(=O)O)C(=O)N[C@@H](CCSC)C(=O)N[C@@H](CC(C)C)C(=O)N[C@@H](CCC(N)=O)C(=O)N[C@@H](CCCCN)C(=O)N[C@@H](CCC(=O)O)C(=O)N[C@@H](Cc1ccc(O)cc1)C(=O)N[C@@H](CCSC)C(=O)N[C@@H](CCC(=O)O)C(=O)N[C@@H](CCCNC(=N)N)C(=O)N[C@@H](CCC(N)=O)C(=O)NCC(=O)N[C@@H](CCCCN)C(=O)N[C@H](C(=O)N1CCC[C@H]1C(=O)N[C@@H](CC(C)C)C(=O)NCC(=O)N[C@@H](CC(C)C)C(=O)N[C@H](C(=O)N[C@@H](CC(=O)O)C(=O)O)C(C)C)[C@@H](C)O)[C@@H](C)O)[C@@H](C)CC [HR2-1] | 28 | 0.37 | completely inhibit
CC[C@H](C)[C@H](NC(=O)[C@H](CC(=O)O)NC(=O)[C@H](CC(=O)O)NC(=O)[C@H](CO)NC(=O)[C@H](Cc1ccccc1)NC(=O)[C@H](Cc1c[nH]cn1)NC(=O)[C@@H](NC(=O)[C@H](CCC(=O)O)NC(=O)[C@H](CC(N)=O)NC(=O)[C@H](CC(C)C)NC(=O)[C@H](Cc1ccc(O)cc1)NC(=O)[C@@H](N)CO)[C@@H](C)O)C(=O)N[C@@H](CCC(=O)O)C(=O)N[C@@H](CCC(N)=O)C(=O)N[C@@H](CCC(N)=O)C(=O)N[C@@H](C)C(=O)N[C@@H](CC(=O)O)C(=O)N[C@@H](CC(N)=O)C(=O)N[C@@H](CCSC)C(=O)N[C@H](C(=O)N[C@H](C(=O)N[C@@H](CCC(=O)O)C(=O)N[C@@H](CCSC)C(=O)N[C@@H](CC(C)C)C(=O)N[C@@H](CCC(N)=O)C(=O)N[C@@H](CCCCN)C(=O)N[C@@H](CCC(=O)O)C(=O)N[C@@H](Cc1ccc(O)cc1)C(=O)N[C@@H](CCSC)C(=O)N[C@@H](CCC(=O)O)C(=O)N[C@@H](CCCNC(=N)N)C(=O)N[C@@H](CCC(N)=O)C(=O)NCC(=O)N[C@@H](CCCCN)C(=O)N[C@H](C(=O)N1CCC[C@H]1C(=O)N[C@@H](CC(C)C)C(=O)O)[C@@H](C)O)[C@@H](C)O)[C@@H](C)CC [HR2-2] |  | 26.4 | 30–40%
